In patent US7341752B2, “Antibacterial treatment and composition” (Academia Sinica, priority 2005, dated 2008):

System: pathogenic Listeria bacteria
Experiment: Prevention of Listeria infection in mice (centaurein given before infection), cumulative survival
Assay type: in vivo, C57BL/6J mice
Conditions: 20 μg per capita intraperitoneally 24 h before 1-2×10^6 Listeria i.p.; ten days after Listeria injection
Experimental: Six-to-eight week-old C57BL/6J mice were injected intraperitoneally with centaurein at a dose ranging from 0-20 μg per capita. After twenty four hours, the same mice were injected with pathogenic Listeria bacteria. A dose of 1-2×10^6 bacteria were introduced intraperitoneally (in a total volume of 0.2 ml) into each mouse. The cumulative survival rates of the mice were then determined. […] In contrast, only 10% of the mice that were injected with Listeria and not treated with centaurein survived. Thus, centaurein protected the mice from a Listerial infection.

## COc1ccc(-c2oc3cc(O[C@@H]4O[C@H](CO)[C@@H](O)[C@H](O)[C@H]4O)c(OC)c(O)c3c(=O)c2OC)cc1O [centaurein]
  cumulative survival of mice: all of the mice
